Assay results: patent EP3800188A1, “SUBSTITUTED PYRAZOLOPYRIMIDINES AS IRAK4 INHIBITORS” (Bayer AG, priority 2019, dated 2021)

How the values were obtained:
[1] = Metabolic stability in human liver microsomes; conditions: 1 µM compound; for CLblood, human microsomes: hepatic in vivo blood clearance calculated with well stirred liver model, '(stable)' given beside < 0.01; for Fmax, human microsomes: maximal oral bioavailability calculated with well stirred liver model, 0.5 mg/mL protein, '(stable)' given beside 100
Procedure: The in vitro metabolic stability of test compounds was determined by incubating them at 1 µM in a suspension liver microsomes in 100 mM phosphate buffer, pH7.4 (NaH2PO4 x H2O + Na2HPO4 x 2H2O) and at a protein concentration of 0.5 mg/mL at 37° C. The microsomes were activated by adding a co-factor mix containing 8 mM Glukose-6-Phosphat, 4 mM MgCl2, 0.5 mM NADP and 1 IU/mL G-6-P-Dehydrogenase in phosphate buffer, pH 7.4. The metabolic assay was started shortly afterwards by adding the test compound to the incubation at a final volume of 1 mL. Organic solvent in the incubations was limited to ≤0.01 % dimethylsulfoxide (DMSO) and ≤1% acetonitril. During incubation, the microsomal suspensions were continuously shaken at 580 rpm, and aliquots were taken at 2, 8, 16, 30, 45 and 60 min, to which equal volumes of cold methanol were immediately added. Samples were frozen at -20° C over night, subsequently centrifuged for 15 min at 3000 rpm and the supernatant was analyzed with an Agilent 1200 HPLC-system with LCMS/MS detection.
The half-life of a test compound was determined from the concentration-time plot. From the half-life the intrinsic clearances were calculated. Together with the additional parameters liver blood flow, specific liver weight and microsomal protein content the hepatic in vivo blood clearance (CL) and the maximal oral bioavailability (Fmax) were calculated using the "well stirred" liver model. The following parameter values were used: Liver blood flow - 1.32 L/h/kg (human), 2.1 L/h/kg (dog); specific liver weight - 21 g/kg (human), 39 g/kg (dog); microsomal protein content - 40 mg/g.

human IRAK4 = target: T1, human IRAK4 (Homo sapiens, UniProt Q9NWZ3); assay: Human IRAK4 kinase activity inhibition assay (IRAK4 TR-FRET assay); type: biochemical; conditions: 1 mM ATP, GST-human IRAK4, average or median values
T1 construct: GST (N); made in house; host or cells: baculovirus-infected Hi5 (BTI-TN-5B1-4) insect cells
T1 sequence (Q9NWZ3 1-460): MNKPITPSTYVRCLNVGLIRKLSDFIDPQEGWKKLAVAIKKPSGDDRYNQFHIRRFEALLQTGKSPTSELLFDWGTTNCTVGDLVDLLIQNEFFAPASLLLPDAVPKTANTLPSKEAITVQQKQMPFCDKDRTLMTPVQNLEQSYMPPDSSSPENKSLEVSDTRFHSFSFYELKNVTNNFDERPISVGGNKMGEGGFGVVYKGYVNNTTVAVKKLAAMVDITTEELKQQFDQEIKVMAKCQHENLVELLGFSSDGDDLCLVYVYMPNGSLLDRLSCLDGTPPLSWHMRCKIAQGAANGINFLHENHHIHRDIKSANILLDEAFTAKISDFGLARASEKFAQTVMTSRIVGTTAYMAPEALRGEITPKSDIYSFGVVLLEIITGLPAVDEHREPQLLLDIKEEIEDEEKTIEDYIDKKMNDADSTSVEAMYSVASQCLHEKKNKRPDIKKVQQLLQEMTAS
Method in brief: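 Signal was the 665/620 nm emission ratio from a europium anti-mouse-IgG, anti-phosphoserine antibody and streptavidin-XL665 complex formed over 1 h at 22°C. It was scaled between no-enzyme (100%) and no-compound (0%) wells. Beforehand, compounds (20 µM down to 0.073 nM, 11 points) sat 15 min with roughly 0.2 nM insect-cell-expressed GST-human IRAK4 before phosphorylation of a biotinylated peptide substrate.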

CLblood, human microsomes [1]	Fmax, human microsomes [1]	IC50 (human IRAK4)	SMILES
< 0.01 (stable) L/h/kg	100 (stable) %	3.46 nM	O=C1C[C@H](Nc2nc(N3CC(N4CCOCC4)C3)c3cnn(-c4cccc(C(F)F)c4)c3n2)CN1 [II-1, (4S)-4-({1-[3-(difluoromethyl)phenyl]-4-[3-(morpholin-4-yl)azetidin-1-yl]-1H-pyrazolo[3,4-d]pyrimidin-6-yl}amino)pyrrolidin-2-one]
< 0.01 (stable) L/h/kg	100 (stable) %	5.37 nM	CC(C)(O)CC1CN(c2nc(NC3CCS(=O)(=O)CC3)nc3c2cnn3-c2cccc(C(F)F)c2)C1 [II-7, 1-(1-{1-[3-(difluoromethyl)phenyl]-6-[(1,1-dioxidotetrahydro-2H-thiopyran-4-yl)amino]-1H-pyrazolo[3,4-d]pyrimidin-4-yl}azetidin-3-yl)-2-methylpropan-2-ol]
< 0.01 (stable) L/h/kg	100 (stable) %	2.01 nM	CS(=O)(=O)[C@H]1C[C@H](Nc2nc(N3CC(N4CCOCC4)C3)c3cnn(-c4cccc(C(F)F)c4)c3n2)C1 [II-8, 1-[3-(difluoromethyl)phenyl]-N-[trans-3-(methylsulfonyl)cyclobutyl]-4-[3-(morpholin-4-yl)azetidin-1-yl]-1H-pyrazolo[3,4-d]pyrimidin-6-amine]
0.42 L/h/kg	68%	4.31 nM	O=C(CC1CN(c2nc(NC3CCS(=O)(=O)CC3)nc3c2cnn3-c2cccc(C(F)F)c2)C1)N1CCOCC1 [II-10, 2-(1-{1-[3-(difluoromethyl)phenyl]-6-[(1,1-dioxidotetrahydro-2H-thiopyran-4-yl)amino]-1H-pyrazolo[3,4-d]pyrimidin-4-yl}azetidin-3-yl)-1-(morpholin-4-yl)ethanone]
0.25 L/h/kg	81%	2.67 nM	CC(C)(O)C1CCN(c2nc(N[C@H]3C[C@H](S(C)(=O)=O)C3)nc3c2cnn3-c2cccc(C(F)F)c2)CC1 [II-11, 2-[1-(1-[3-(difluoromethyl)phenyl]-6-{[trans-3-(methylsulfonyl)cyclobutyl]amino}-1H-pyrazolo[3,4-d]pyrimidin-4-yl)piperidin-4-yl]propan-2-ol]
< 0.01 (stable) L/h/kg	100 (stable) %	7.01 nM	CC(C)(O)CC1CN(c2nc(NC3CN(S(C)(=O)=O)C3)nc3c2cnn3-c2cccc(C(F)F)c2)C1 [II-14, 1-[1-(1-[3-(difluoromethyl)phenyl]-6-{[1-(methylsulfonyl)azetidin-3-yl]amino}-1H-pyrazolo[3,4-d]pyrimidin-4-yl)azetidin-3-yl]-2-methylpropan-2-ol]
0.23 L/h/kg	82%	1.63 nM	CC(C)(O)CC1CN(c2nc(N[C@H]3C[C@H](S(C)(=O)=O)C3)nc3c2cnn3-c2cccc(C(F)F)c2)C1 [II-19, 1-[1-(1-[3-(difluoromethyl)phenyl]-6-{[trans-3-(methylsulfonyl)cyclobutyl]amino}-1H-pyrazolo[3,4-d]pyrimidin-4-yl)azetidin-3-yl]-2-methylpropan-2-ol]
0.04 L/h/kg	97%	1.39 nM	CS(=O)(=O)N1CC(Nc2nc(N3CCC(C4(N)CC4)CC3)c3cnn(-c4cccc(C(F)F)c4)c3n2)C1 [II-20, 4-[4-(1-aminocyclopropyl)piperidin-1-yl]-1-[3-(difluoromethyl)phenyl]-N-[1-(methylsulfonyl)azetidin-3-yl]-1H-pyrazolo[3,4-d]pyrimidin-6-amine]
0.07 L/h/kg	95%	1.8 nM	CC1(N2CCOCC2)CN(c2nc(N[C@H]3C[C@H](S(C)(=O)=O)C3)nc3c2cnn3-c2cccc(C(F)F)c2)C1 [II-21, 1-[3-(difluoromethyl)phenyl]-4-[3-methyl-3-(morpholin-4-yl)azetidin-1-yl]-N-[trans-3-(methylsulfonyl)cyclobutyl]-1H-pyrazolo[3,4-d]pyrimidin-6-amine]
< 0.01 (stable) L/h/kg	100 (stable) %	5.65 nM	O[C@H]1C[C@@H](Nc2nc(N3CC(N4CCOCC4)C3)c3cnn(-c4cccc(C(F)F)c4)c3n2)C1 [II-24, cis-3-({1-[3-(difluoromethyl)phenyl]-4-[3-(morpholin-4-yl)azetidin-1-yl]-1H-pyrazolo[3,4-d]pyrimidin-6-yl}amino)cyclobutanol]
< 0.01 (stable) L/h/kg	100 (stable) %	4.75 nM	O=C1CN(C2CN(c3nc(N[C@H]4C[C@H](O)C4)nc4c3cnn4-c3cccc(C(F)F)c3)C2)CCN1 [II-27, 4-(1-{1-[3-(difluoromethyl)phenyl]-6-[(trans-3-hydroxycyclobutyl)amino]-1H-pyrazolo[3,4-d]pyrimidin-4-yl}azetidin-3-yl)piperazin-2-one]
0.29 L/h/kg	78%	9.22 nM	CCS(=O)(=O)N1CC(Nc2nc(N3CCC(C(C)(C)O)CC3)c3cnn(-c4cccc(C(F)F)c4)c3n2)C1 [II-31, 2-[1-(1-[3-(difluoromethyl)phenyl]-6-{[1-(ethylsulfonyl)azetidin-3-yl]amino}-1H-pyrazolo[3,4-d]pyrimidin-4-yl)piperidin-4-yl]propan-2-ol]
0.07 L/h/kg	95%	3.49 nM	CS(=O)(=O)[C@H]1C[C@H](Nc2nc(N3CC[C@@H](O)C3)c3cnn(-c4cccc(C(F)F)c4)c3n2)C1 [II-34, (3R)-1-(1-[3-(difluoromethyl)phenyl]-6-{[(1r,3R)-3-(methylsulfonyl)cyclobutyl]amino}-1H-pyrazolo[3,4-d]pyrimidin-4-yl)pyrrolidin-3-ol]

Further lines, the compound ahead of its results:

SMILES	CLblood, human microsomes [1]	Fmax, human microsomes [1]	IC50 (human IRAK4)
O=C1CCCN1C1CN(c2nc(N[C@H]3C[C@@H](O)C3)nc3c2cnn3-c2cccc(C(F)(F)F)c2)C1 [Example I-112, 1-(1-{6-[(cis-3-hydroxycyclobutyl)amino]-1-[3-(trifluoromethyl)phenyl]-1H-pyrazolo[3,4-d]pyrimidin-4-yl}azetidin-3-yl)pyrrolidin-2-one]	0.39 L/h/kg	71%	3.24 nM
O=C1CCCN1C1CN(c2nc(N[C@H]3C[C@H](O)C3)nc3c2cnn3-c2cccc(C(F)(F)F)c2)C1 [Example I-113, 1-(1-{6-[(trans-3-hydroxycyclobutyl)amino]-1-[3-(trifluoromethyl)phenyl]-1H-pyrazolo-[3,4-d]pyrimidin-4-yl}azetidin-3-yl)pyrrolidin-2-one]	0.03 L/h/kg	98%	3.6 nM
OC1(CN2CCCC2)CCN(c2nc(N[C@H]3C[C@@H](O)C3)nc3c2cnn3-c2cccc(C(F)(F)F)c2)CC1 [Example I-114, 1-{6-[(cis-3-hydroxycyclobutyl)amino]-1-[3-(trifluoromethyl)phenyl]-1H-pyrazolo[3,4-d]pyrimidin-4-yl}-4-(pyrrolidin-1-ylmethyl)piperidin-4-ol]	0.21 L/h/kg	84%	8.49 nM
O=C1CN(C2CN(c3nc(N[C@H]4C[C@@H](O)C4)nc4c3cnn4-c3cccc(C(F)(F)F)c3)C2)CCN1 [Example I-115, 4-(1-{6-[(cis-3-hydroxycyclobutyl)amino]-1-[3-(trifluoromethyl)phenyl]-1H-pyrazolo[3,4-d]pyrimidin-4-yl}azetidin-3-yl)piperazin-2-one]	< 0.01 (stable) L/h/kg	100 (stable) %	7.51 nM
CS(=O)(=O)[C@H]1C[C@H](Nc2nc(N3C[C@H](O)[C@@H](F)C3)c3cnn(-c4cccc(C(F)F)c4)c3n2)C1 [II-16-2, (3S,4S)-1-(1-[3-(difluoromethyl)phenyl]-6-{[trans-3-(methanesulfonyl)cyclobutyl]amino}-1H-pyrazolo[3,4-d]pyrimidin-4-yl)-4-fluoropyrrolidin-3-ol]	< 0.01 (stable) L/h/kg	100 (stable) %	2.82 nM
CS(=O)(=O)[C@H]1C[C@H](Nc2nc(N3C[C@@H](O)[C@H](F)C3)c3cnn(-c4cccc(C(F)F)c4)c3n2)C1 [II-16-3, (3R,4R)-1-(1-[3-(difluoromethyl)phenyl]-6-{[trans-3-(methanesulfonyl)cyclobutyl]-amino)-1H-pyrazolo[3,4-d]pyrimidin-4-yl)-4-fluoropyrrolidin-3-ol]	0.08 L/h/kg	94%	1.62 nM
CC(C)(O)C1CCN(c2nc(N[C@H]3C[C@@]4(CCN4)C3)nc3c2cnn3-c2cccc(C(F)F)c2)CC1 [II-18, 2-(1-{6-[(4r,6s)-1-azaspiro[3.3]heptan-6-ylamino]-1-[3-(difluoromethyl)phenyl]-1H-pyrazolo[3,4-d]pyrimidin-4-yl}piperidin-4-yl)propan-2-ol]	0.10 L/h/kg	93%	1.4 nM
